In patent US20010023832A1, “Chemical sensor and use thereof” (priority 1995, published 2001):

Target: the enzyme urea (Canavalia ensiformis, UniProt P07374)
Assay: Effect of potential interfering substances on the pH response of the urea(bio)sensor
Format: biochemical
Text: Furthermore, the effect of potential interfering substances, such as glucose, acetone, citric acid and sodium acetate, was investigated, see Table 2.

Chain of the enzyme urea (P07374 whole entry, looked up): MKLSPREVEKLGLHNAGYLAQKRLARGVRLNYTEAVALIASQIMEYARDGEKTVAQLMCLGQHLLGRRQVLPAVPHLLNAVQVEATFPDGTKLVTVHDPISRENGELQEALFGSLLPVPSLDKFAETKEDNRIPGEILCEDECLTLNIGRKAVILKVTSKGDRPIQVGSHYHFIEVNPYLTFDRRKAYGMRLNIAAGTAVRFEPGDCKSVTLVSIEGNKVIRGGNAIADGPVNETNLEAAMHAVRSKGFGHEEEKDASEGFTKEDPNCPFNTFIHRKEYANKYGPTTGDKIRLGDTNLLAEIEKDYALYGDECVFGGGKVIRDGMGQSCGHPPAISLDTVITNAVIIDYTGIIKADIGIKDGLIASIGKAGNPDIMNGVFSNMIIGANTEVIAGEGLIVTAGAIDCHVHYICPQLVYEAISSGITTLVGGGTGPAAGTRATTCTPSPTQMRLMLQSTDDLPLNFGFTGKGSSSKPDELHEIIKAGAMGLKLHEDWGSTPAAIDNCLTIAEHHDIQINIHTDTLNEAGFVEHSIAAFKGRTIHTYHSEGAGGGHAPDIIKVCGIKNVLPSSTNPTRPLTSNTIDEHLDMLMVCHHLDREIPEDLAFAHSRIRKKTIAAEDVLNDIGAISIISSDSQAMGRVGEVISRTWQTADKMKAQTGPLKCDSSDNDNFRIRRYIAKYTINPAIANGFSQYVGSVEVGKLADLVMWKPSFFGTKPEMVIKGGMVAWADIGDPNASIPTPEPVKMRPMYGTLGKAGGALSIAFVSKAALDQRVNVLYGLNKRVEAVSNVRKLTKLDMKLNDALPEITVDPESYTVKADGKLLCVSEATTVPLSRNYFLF

| SMILES | Change in ΔpH (%) (substance 1 mM in sample solution, no stabiliser) | Change in ΔpH (%) (substance 1 mM, value in parentheses, stabiliser (for instance EDTA) injected together with the enzyme) | Change in ΔpH (%) (substance 2 mM in sample solution, no stabiliser) | Change in ΔpH (%) (substance 2 mM, value in parentheses, stabiliser (for instance EDTA) injected together with the enzyme) | Change in ΔpH (%) (substance 0.6 mM in sample solution, urea(bio)sensor, pH electrode) |
| --- | --- | --- | --- | --- | --- |
| O=S(=O)([O-])[O-].[Cu+2] [Copper sulphate] | −38% | 0% | −65% | 0% |  |
| CC(=O)[O-].[Na+] [Sodium acetate] |  |  |  |  | 0% |
